ChEMBL document CHEMBL5346927, “Discovery of a novel 1H-pyrazole- [3,4-b] pyridine-based lysine demethylase 5B inhibitor with potential anti-prostate cancer activity that perturbs the phosphoinositide 3-kinase/AKT pathway” (Eur J Med Chem, 2023)
Activity calls are given as the source filed them. No cut-off for these calls is given here.

Assays:
[1] = MRT (0 to t) in ICR mouse at 25 mg/kg, IG measured at 0.083 to 24 hrs by LC-MS analysis; format: ADME, organism-based; conditions: in vivo, po, time 0.083-24 hrs
PC-3 [2] = assay: Induction of cell cycle arrest in human PC-3 cells assessed as increase in G2/M phase cell ratio at 10 uM incubated for 24 hrs by PI/RNase A staining based flow cytometric analysis (reference value: 16.07%); format: functional
PC-3 [3] = assay: Induction of apoptosis in human PC-3 cells assessed as viable cells at 10 uM incubated for 72 hrs by Annexin V-FITC/PI staining based flow cytometric analysis (reference value: 90.93%); format: functional; conditions: read-out: Activity
[4] = Acute toxicity in Kunming mouse assessed as effect on weight at 2 g/Kg, IG measured after 2 weeks; conditions: in vivo, po, 2000 mg/kg, 336 h
[5] = Cmax in ICR mouse at 5 mg/kg, iv measured at 0.083 to 24 hrs by LC-MS analysis; format: ADME, organism-based; design: time upper 24 hrs, time lower 0.083 hrs, dose 5 mg/kg, route iv; conditions: in vivo
[6] = Toxicity in BALB/C nude mouse xenografted with human PC-3 cells assessed as effect on body weight at 25 to 50 mg/kg, IG administered for 25 days; format: organism-based; conditions: in vivo, po, 600 h, dose 25-50 mg/kg, time 25 day
[7] = Cytotoxicity against human WPMY-1 cells incubated for 72 hrs by MTT assay; format: toxicity, cell-based
[8] = Apparent volume of distribution in ICR mouse at 5 mg/kg, iv measured at 0.083 to 24 hrs by LC-MS analysis; format: ADME, organism-based; conditions: in vivo, time 0.083-24 hrs
PC-3 [9] = assay: Antitumor activity against human PC-3 cells xenografted in BALB/C nude mice assessed as decrease in tumor volume at 50 mg/kg, IG measured after 13 days; format: functional, organism-based; conditions: time 13.0 day
[10] = Oral bioavailability in ICR mouse at 25 mg/kg measured at 0.083 to 24 hrs by LC-MS analysis; format: ADME, organism-based; conditions: in vivo, time 0.083-24 hrs
LNCaP [11] = assay: Antiproliferative activity against human LNCaP cells assessed as inhibition of cell proliferation incubated for 72 hrs by MTT assay; format: functional, cell-based
[12] = Acute toxicity in Kunming mouse assessed as prostate gland damage at 2 g/Kg, IG measured after 2 weeks by H&E staining based analysis; format: tissue-based; conditions: in vivo, po, 2000 mg/kg, 336 h
PC-3 [13] = assay: Induction of apoptosis in human PC-3 cells assessed as viable cells at 5 uM incubated for 72 hrs by Annexin V-FITC/PI staining based flow cytometric analysis (reference value: 90.93%); format: functional; conditions: read-out: Activity
[14] = AUC (0 to t) in ICR mouse at 25 mg/kg, IG measured at 0.083 to 24 hrs by LC-MS analysis; format: ADME, organism-based; design: dose 25 mg/kg, time upper 24 hrs, time lower 0.083 hrs, route ig; conditions: in vivo, po
[15] = target: T1, Lysine-specific demethylase 5B (Homo sapiens, UniProt Q9UGL1); assay: Inhibition of KDM5B in human PC-3 cells assessed as H3K4me2 accumulation incubated for 72 hrs by Western blot analysis; format: cell-based
T1 sequence (Q9UGL1 whole entry): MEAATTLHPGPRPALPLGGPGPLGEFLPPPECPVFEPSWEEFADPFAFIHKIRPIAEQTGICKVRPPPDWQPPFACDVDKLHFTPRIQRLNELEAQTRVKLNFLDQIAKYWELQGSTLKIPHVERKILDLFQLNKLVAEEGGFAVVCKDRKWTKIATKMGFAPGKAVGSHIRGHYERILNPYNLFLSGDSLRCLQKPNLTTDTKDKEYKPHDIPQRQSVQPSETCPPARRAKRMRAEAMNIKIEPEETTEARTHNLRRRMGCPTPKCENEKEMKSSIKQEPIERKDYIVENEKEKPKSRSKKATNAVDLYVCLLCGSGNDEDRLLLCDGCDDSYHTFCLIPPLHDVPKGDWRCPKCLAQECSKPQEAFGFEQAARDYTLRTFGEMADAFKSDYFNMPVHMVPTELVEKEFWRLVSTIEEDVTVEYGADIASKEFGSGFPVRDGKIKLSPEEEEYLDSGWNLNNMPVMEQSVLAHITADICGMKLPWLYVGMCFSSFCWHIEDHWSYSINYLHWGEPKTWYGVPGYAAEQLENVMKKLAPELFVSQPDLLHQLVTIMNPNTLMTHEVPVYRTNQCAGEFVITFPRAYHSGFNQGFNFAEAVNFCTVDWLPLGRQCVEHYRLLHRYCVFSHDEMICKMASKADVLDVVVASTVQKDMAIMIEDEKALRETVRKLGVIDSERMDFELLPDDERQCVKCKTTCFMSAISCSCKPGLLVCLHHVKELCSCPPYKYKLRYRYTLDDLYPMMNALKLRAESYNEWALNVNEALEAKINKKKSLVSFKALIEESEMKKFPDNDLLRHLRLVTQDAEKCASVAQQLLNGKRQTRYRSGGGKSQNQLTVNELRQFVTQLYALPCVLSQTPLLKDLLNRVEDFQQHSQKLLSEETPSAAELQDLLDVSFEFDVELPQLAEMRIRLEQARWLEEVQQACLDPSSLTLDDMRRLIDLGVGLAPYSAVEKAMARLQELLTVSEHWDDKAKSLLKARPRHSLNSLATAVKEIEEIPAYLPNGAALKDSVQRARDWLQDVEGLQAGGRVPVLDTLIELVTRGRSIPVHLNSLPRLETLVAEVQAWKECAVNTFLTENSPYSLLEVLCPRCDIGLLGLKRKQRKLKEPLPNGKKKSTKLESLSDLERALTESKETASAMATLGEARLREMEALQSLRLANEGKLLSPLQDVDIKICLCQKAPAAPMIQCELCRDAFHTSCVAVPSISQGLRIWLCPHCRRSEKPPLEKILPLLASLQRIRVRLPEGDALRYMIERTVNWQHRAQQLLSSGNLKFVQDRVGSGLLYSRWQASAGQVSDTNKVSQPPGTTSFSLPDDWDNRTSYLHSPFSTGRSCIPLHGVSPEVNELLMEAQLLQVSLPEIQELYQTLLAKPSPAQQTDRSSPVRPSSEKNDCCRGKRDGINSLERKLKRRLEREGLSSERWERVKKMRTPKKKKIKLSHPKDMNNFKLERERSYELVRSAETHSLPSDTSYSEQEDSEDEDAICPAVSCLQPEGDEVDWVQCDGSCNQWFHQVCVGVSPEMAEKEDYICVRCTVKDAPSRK

PC-3 [16] = assay: Antitumor activity against human PC-3 cells xenografted in BALB/C nude mice assessed as decrease in tumor weight at 25 to 50 mg/kg, IG administered for 25 days; format: functional, organism-based; conditions: dose 25-50 mg/kg, time 25.0 day
PC-3 [17] = assay: Inhibition of PI3K/AKT pathway in human PC-3 cells assessed as decrease in P85 level at 10 to 20 uM by Western blot analysis; format: cell-based; conditions: dose 10-20 µM
PC-3 [18] = assay: Inhibition of PI3K/AKT pathway in human PC-3 cells assessed as decrease in AKT phosphorylation at Ser473 residue at 2.5 to 10 uM by Western blot analysis; format: cell-based; conditions: dose 2.5-10 µM
[19] = Half-life in ICR mouse at 5 mg/kg, iv measured at 0.083 to 24 hrs by LC-MS analysis; format: ADME, organism-based; conditions: in vivo, time 0.083-24 hrs
[20] = Acute toxicity in Kunming mouse assessed as effect on lung at 2 g/Kg, IG measured after 2 weeks by H&E staining based analysis; format: tissue-based; conditions: in vivo, po, 2000 mg/kg, 336 h
[21] = target: T1, Lysine-specific demethylase 5B; assay: Inhibition of KDM5B (unknown origin)
PC-3 [22] = assay: Inhibition of PI3K/AKT pathway in human PC-3 cells assessed as decrease in P85 level at 2.5 to 5 uM by Western blot analysis; format: cell-based; conditions: dose 2.5-5 µM
LNCaP [23] = assay: Inhibition of colony formation in human LNCaP cells incubated for 72 hrs by crystal violet staining based microplate reader analysis; format: functional, cell-based
[24] = Toxicity in BALB/C nude mouse xenografted with human PC-3 cells assessed as kidney damage at 25 to 50 mg/kg, IG administered for 25 days by H&E staining based analysis; format: organism-based; conditions: in vivo, po, 600 h, dose 25-50 mg/kg, time 25 day
DU-145 = assay: Antiproliferative activity against human DU-145 cells assessed as inhibition of cell proliferation incubated for 72 hrs by MTT assay; format: functional, cell-based; conditions: DU-145, 72 h
PC-3 [25] = assay: Induction of apoptosis in human PC-3 cells assessed as late apoptotic cells at 5 uM incubated for 72 hrs by Annexin V-FITC/PI staining based flow cytometric analysis (reference value: 1.05%); format: functional
PC-3 [26] = assay: Induction of apoptosis in human PC-3 cells assessed as necrotic cells at 10 uM incubated for 72 hrs by Annexin V-FITC/PI staining based flow cytometric analysis (reference value: 5.01%); format: functional
MCF7 = assay: Antitumor activity against human MCF7 cells assessed as inhibition of cell proliferation incubated for 72 hrs by MTT assay; format: functional, cell-based; conditions: MCF7, 72 h
PC-3 [27] = assay: Inhibition of PI3K/AKT pathway in human PC-3 cells assessed as decrease in P110alpha level at 10 uM by Western blot analysis; format: cell-based
[28] = Acute toxicity in Kunming mouse assessed as effect on spleen at 2 g/Kg, IG measured after 2 weeks by H&E staining based analysis; format: tissue-based; conditions: in vivo, po, 2000 mg/kg, 336 h
[29] = Acute toxicity in Kunming mouse assessed as effect on survival at 2 g/Kg, IG measured after 2 weeks; conditions: in vivo, po, 2000 mg/kg, 336 h
[30] = Cmax in ICR mouse at 25 mg/kg, IG measured at 0.083 to 24 hrs by LC-MS analysis; format: ADME, organism-based; design: time lower 0.083 hrs, dose 25 mg/kg, time upper 24 hrs, route ig; conditions: in vivo, po
[31] = Tmax in ICR mouse at 25 mg/kg, IG measured at 0.083 to 24 hrs by LC-MS analysis; format: ADME, organism-based; conditions: in vivo, po, time 0.083-24 hrs
[32] = Toxicity in BALB/C nude mouse xenografted with human PC-3 cells assessed as liver damage at 25 to 50 mg/kg, IG administered for 25 days by H&E staining based analysis; format: organism-based; conditions: in vivo, po, 600 h, dose 25-50 mg/kg, time 25 day
PC-3 [33] = assay: Inhibition of PI3K/AKT pathway in human PC-3 cells assessed as decrease in P110alpha level at 20 uM by Western blot analysis relative to control; format: cell-based
[34] = target: T1, Lysine-specific demethylase 5B; assay: Inhibition of KDM5B in human PC-3 cells assessed as H3K4me1 accumulation incubated for 72 hrs by Western blot analysis; format: cell-based
PC-3 [35] = assay: Induction of apoptosis in human PC-3 cells assessed as necrotic cells at 2.5 uM incubated for 72 hrs by Annexin V-FITC/PI staining based flow cytometric analysis (reference value: 5.01%); format: functional
[36] = target: T1, Lysine-specific demethylase 5B; assay: Inhibition of KDM5B in human PC-3 cells assessed as H3K4me3 accumulation incubated for 72 hrs by Western blot analysis; format: cell-based
PC-3 [37] = assay: Inhibition of PI3K/AKT pathway in human PC-3 cells assessed as decrease in AKT phosphorylation at Thr308 residue at 2.5 to 10 uM by Western blot analysis; format: cell-based; conditions: dose 2.5-10 µM

With CN1CCN(CCNC(=O)c2cc(-c3ccc4ccccc4c3)nc3c2cnn3-c2ccccc2)CC1 the MRT last [1] was 6.9 h, the Activity (PC-3 [2]) was 75.33% and the viability at 10 µM (PC-3 [3]) was 58.8%. For the same molecule, the Activity [4] was “Non-Toxic”, the Cmax [5] was 551.67 ng/mL and the Activity [6] was “Non-Toxic”. The IC50 at 72 h [7] was 27.9 µM, the Vz [8] was 19.51 L/kg and the Activity (PC-3 [9]) was “Active”. The F [10] was 20.28%, the IC50 (LNCaP [11]) was 4.34 µM and the Activity [12] was “Non-Toxic”. For the same molecule, the viability at 5 µM (PC-3 [13]) was 73%, the AUCt [14] was 3024.33 ng·h/mL and the inhibition [15] was “Dose-Dependent Effect”. The Activity (PC-3 [16]) was “Active”, the inhibition (PC-3 [17]) was “Active” and the inhibition (PC-3 [18]) was “inactive”. The t1/2 [19] was 2.95 h, the Activity [20] was “Non-Toxic” and the IC50 [21] was 0.025 µM. For the same molecule, the inhibition (PC-3 [22]) was “inactive”, the inhibition (LNCaP [23]) was “Dose-Dependent Effect” and the Activity [24] was “Non-Toxic”. For the same molecule, the IC50 (DU-145) was 9.53 µM, the Activity (PC-3 [25]) was 7.54% and the Activity (PC-3 [26]) was 23.96%. The IC50 (MCF7) was 6.77 µM, the inhibition (PC-3 [27]) was “Active” and the Activity [28] was “Non-Toxic”. The Activity [29] was “Non-Toxic”, the Cmax [30] was 412 ng/mL and the Tmax [31] was 6 h. The Activity [32] was “Non-Toxic”, the inhibition (PC-3 [33]) was 80% and the inhibition [34] was “Dose-Dependent Effect”. The Activity (PC-3 [35]) was 18.36%, the inhibition [36] was “Dose-Dependent Effect” and the inhibition (PC-3 [37]) was “inactive”.
